A short description of the data set: Dog pharmacokinetics (screening IV/PO or cassette IV). The class given is in vivo. The following applies: male; dog plasma, mean residence time. How it is done: Plasma pharmacokinetic parameters for clearance, volume of distribution, half-life, mean residence time (MRT) and oral bioavailability were determined in dogs from oral administration and IV administration studies. 4 male dogs, typically weighing 8-12 kilograms, were fasted overnight prior to dosing. Compounds were prepared for oral and IV dosing by addition to a vehicle, depending on the dose used. For a typical preparation, 1 mg per mL (IV) or 1.5 mg per mL (oral) of test compound was added to vehicle comprised of 20% dimethyl sulfoxide (DMSO), 60% polyethylene glycol 400 (PEG400) and 20% water. IV formulation was administered to 2 dogs via the saphenous or cephalic vein, and oral dosing was administered to 2 dogs via oral gavage. Blood was collected by the cephalic or jugular vein, typically at predose, 2 min, 8 min, 15 min, 30 min, and 1, 2, 4, 6, 8 and 24 hr postdose for IV, and at predose, 15 min, 30 min, and 1, 2, 4, 6, 8, and 24 hr for oral dosing. Samples were collected in K2EDTA tubes, stored on ice. and centrifuged. Plasma was transferred to a micro titer plate and stored at −70° C.until analysis. Plasma samples were extracted using protein precipitation and analyzed by liquid chromatography separation followed by mass spec detection (LCMS/MS), using a standard curve for each compound. Plasma pharmacokinetic parameters were calculated for IV and oral dosing data by non-compartmental methods. Oral bioavailability was determined as the ratio of the dose-normalized plasma area under the curve (AUC) following oral dosing vs. IV dosing.
Plasma pharmacokinetic parameters for clearance, volume of distribution, half-life, and mean residence time (MRT) were determined in dogs from IV cassette administration studies. 2 male dogs, typically weighing 8-12 kilograms, were fasted overnight prior to dosing. Compounds were prepared for IV dosing by addition to a vehicle, depending on the dose used. For a typical preparation, 1 mg per mL (IV) of up to 5 test compounds were added to vehicle comprised of 20% dimethyl sulfoxide (DMSO), 60% polyethylene glycol 400 (PEG400) and 20% water. IV formulation was administered to 2 dogs via the saphenous or cephalic vein. Blood was collected by the cephalic or jugular vein, typically at predose. 2, 8, 15, 30 min, 1, 2, 4, 6, 8 and 24 hr postdose. Samples were collected in K2EDTA tubes, stored on ice, and centrifuged. Plasma was transferred to a micro titer plate and stored at −70° C. until analysis. Plasma samples were extracted using protein precipitation and analyzed by liquid chromatography separation followed by mass spec detection (LCMS/MS), using a standard curve for each compound. Plasma pharmacokinetic parameters were calculated by non-compartmental methods.

In general, MRT refers to a mean duration of stay, worked out from the concentration-time curve. In turn, `CCOC(=O)c1[nH]c2nc1-c1ccc(NC(=O)OC)cc1NC(=O)C(C)(C)CCC[C@@H]2c1ccc(-c2cc(F)ccc2-n2cc(C(F)(F)F)cn2)c[n+]1[O-]` [Example 1, (R,Z)-2-(1^5-(ethoxycarbonyl)-2^4-((methoxycarbonyl)amino)-5,5-dimethyl-4-oxo-1^1H-3-aza-1(4,2)-imidazola-2(1,2)-benzenacyclononaphane-9-yl)-5-(5-fluoro-2-(4-(trifluoromethyl)-1H-pyrazol-1-yl)phenyl)pyridine 1-oxide] gave an MRT of 12 h. In turn, `CCOC(=O)c1[nH]c2nc1-c1ccc(NC(=O)OC)cc1NC(=O)C(C)(C)CCC[C@@H]2c1ccc(-c2cc(F)ccc2OC(F)F)c[n+]1[O-]` [Example 3, (R,Z)-5-(2-(difluoromethoxy)-5-fluorophenyl)-2-(1^5-(ethoxycarbonyl)-2^4-((methoxycarbonyl)amino)-5,5-dimethyl-4-oxo-1^1H-3-aza-1(4,2)-imidazola-2(1,2)-benzenacyclononaphane-9-yl)pyridine 1-oxide] had an MRT of 6.1 h. With `CCOC(=O)c1[nH]c2nc1-c1ccc(NC(=O)OC)cc1NC(=O)C(C)(C)CCC[C@@H]2c1ccc(-c2cc(Cl)ccc2-n2cc(C(F)(F)F)cn2)c[n+]1[O-]` [Example 2, (R,Z)-5-(5-chloro-2-(4-(trifluoromethyl)-1H-pyrazol-1-yl)phenyl)-2-(1^5-(ethoxycarbonyl)-2^4-((methoxycarbonyl)amino)-5,5-dimethyl-4-oxo-1^1H-3-aza-1(4,2)-imidazola-2(1,2)-benzenacyclononaphane-9-yl)pyridine 1-oxide], the mean residence time (MRT) was found to be 15 h. As for `CCOC(=O)c1[nH]c2nc1-c1ccc(NC(=O)OC)cc1NC(=O)C(C)(C)CCC[C@@H]2c1ccc(-c2cc(Cl)cnc2OC(F)F)c[n+]1[O-]` [Example 4, (R,Z)-5′-chloro-2′-(difluoromethoxy)-6-(1^5-(ethoxycarbonyl)-2^4-((methoxycarbonyl)amino)-5,5-dimethyl-4-oxo-1^1H-3-aza-1(4,2)-imidazola-2(1,2)-benzenacyclononaphane-9-yl)-[3,3′-bipyridine] 1-oxide], the figure is 9.9 h; as for `COC(=O)Nc1ccc2c(c1)NC(=O)C(C)(C)CCC[C@H](c1ccc(-c3cc(F)ccc3-n3cc(C(F)(F)F)cn3)c[n+]1[O-])c1nc-2c(C(=O)OC)[nH]1` [Example 6, (R,Z)-5-(5-fluoro-2-(4-(trifluoromethyl)-1H-pyrazol-1-yl)phenyl)-2-(1^5-(methoxycarbonyl)-2^4-((methoxycarbonyl)amino)-5,5-dimethyl-4-oxo-1^1H-3-aza-1(4,2)-imidazola-2(1,2)-benzenacyclononaphane-9-yl)pyridine 1-oxide], 8.9 h; as for `CCOC(=O)c1[nH]c2nc1-c1ccc(NC(=O)OC)cc1NC(=O)C(C)(C)CCC[C@@H]2c1ccc(-c2cccc(Cl)c2F)c[n+]1[O-]` [Example 5, (R,Z)-5-(3-chloro-2-fluorophenyl)-2-(1^5-(ethoxycarbonyl)-2^4-((methoxycarbonyl)amino)-5,5-dimethyl-4-oxo-1^1H-3-aza-1(4,2)-imidazola-2(1,2)-benzenacyclononaphane-9-yl)pyridine 1-oxide], 7.2 h.

The record behind these values is patent US12497403B2, “Factor XIa inhibitors” (Merck Sharp & Dohme LLC, priority 2021, dated 2025).
